Results taken from PubChem BioAssay AID1996.
Values after ≈ are worked out from the molar mass of the structure shown.

Settings: buffer; pH 7.4; 200.0 µM

| Compound | solubility kinetic |
| --- | --- |
| CCOc1ccccc1NC(=S)N1CCCCCC1 | > 41.8 µg/mL |
| CCN1C(=O)Cc2cc(S(=O)(=O)NCCc3ccccc3)ccc21 | 32.9 µg/mL (≈ 95.5 µM) |
| O=C(Nc1cccc(Cl)c1)C1COc2ccccc2O1 (stereo unspecified) | 3.1 µg/mL (≈ 10.7 µM) |
| CCc1ccc(C(=O)NC(C(=O)NCC2CCCO2)C(C)C)cc1 (stereo unspecified) | > 49.9 µg/mL |
| O=C(O)CC(NC(=O)c1ccco1)c1ccco1 (stereo unspecified) | > 37.4 µg/mL |
| O=C(NCCNC(=O)c1ccccc1[N+](=O)[O-])c1ccccc1[N+](=O)[O-] | 11.4 µg/mL (≈ 31.8 µM) |
| Cc1ccc(NC(=O)Cc2cccs2)cc1Cl | 6.1 µg/mL (≈ 23 µM) |
| CC(=O)c1sc2nc(-c3ccco3)ccc2c1N | 6 µg/mL (≈ 23.2 µM) |
| CC1CCN(CC(C)OC(=O)c2ccco2)CC1.Cl (stereo unspecified) | > 43.2 µg/mL |
| O=C(CN1CCCc2ccccc21)NCCc1ccc(F)cc1 | > 46.9 µg/mL |
| CC(=O)NC1C(Oc2ccccc2C)OC(CO)C(O)C1O (stereo unspecified) | > 46.7 µg/mL |
| Cc1ccc(CC2CC(=O)N(CCc3ccccc3)C2=O)cc1 (stereo unspecified) | 2.9 µg/mL (≈ 9.43 µM) |
| OC[C@@H](O)C1OC2NC(=S)OC2C1O (stereo partly specified) | > 33.2 µg/mL |
| COc1ccc2ccccc2c1CN1CCSCC1 | 21.5 µg/mL (≈ 78.6 µM) |
| Cc1ccc(S(=O)(=O)N2CCOCC2)cc1C(=O)OCC(=O)NC1CCCC1 | > 61.6 µg/mL |
| N#Cc1c(N)nc(Sc2ccc(Cl)cc2)c(C#N)c1-c1ccccc1Cl | < 0.2 µg/mL |
| O=C1CS/C(=N\NC(=O)c2ccccc2)N1 | > 35.3 µg/mL |
| Cc1cc(-c2ccccc2)c2ccc(NC(=O)C(C)(C)C)nc2n1 | 0.6 µg/mL (≈ 1.88 µM) |
| CCOC(=O)Nc1cc(NC(=O)OCC)c(C)nc1C | > 42.2 µg/mL |
| COc1ccc(OC)c(Nc2cc(C)c3ccccc3n2)c1 | 1.4 µg/mL (≈ 4.76 µM) |
| CC1(C)Cc2sc3c(=O)[nH]c(=S)[nH]c3c2CO1 | > 40.3 µg/mL |
| COc1ccc(Cl)cc1C(=O)NC(=S)Nc1nc(C)cc(C)n1 | 0.4 µg/mL (≈ 1.14 µM) |
| COc1ccc2[nH]c(C(=O)NCc3ccccc3)cc2c1 | 1.3 µg/mL (≈ 4.64 µM) |
| C=CCn1c(SCc2ccccc2)nc2c1c(=O)[nH]c(=O)n2C | 25 µg/mL (≈ 76.1 µM) |
| Clc1cc(-c2ccccc2)nc(-c2ccccc2)n1 | < 0.3 µg/mL |

| Compound | solubility kinetic |
| --- | --- |
| COc1cc2c(cc1OC)C(NC(=O)c1ccc(C)cc1)CC2=O (stereo unspecified) | 4.6 µg/mL (≈ 14.1 µM) |
| Cc1ccc(OCC(=O)O/N=C(\N)c2ccncc2)c(C)c1 | 30.9 µg/mL (≈ 103 µM) |
| O=C(NCCc1ccco1)c1ccc(OCc2cn3ccccc3n2)cc1 | > 54.2 µg/mL |
| NC(=[NH2+])SCc1[nH+]cccc1O.[Cl-] | 35.3 µg/mL |
| Cc1ccc(C)c(NC(=O)C(C)N2C(=O)c3ccccc3C2=O)c1 (stereo unspecified) | 21 µg/mL (≈ 65.1 µM) |
| CN(C)/C(=N\S(=O)(=O)c1ccccc1)c1ccc(Cl)cc1 | > 48.4 µg/mL |
| Cc1cccc(OCCCn2c(CO)nc3ccccc32)c1 | > 44.5 µg/mL |
| O.O=C([O-])c1ccn2c(C(=O)c3ccccc3)c(-c3ccccc3)cc2c1 | > 52.4 µg/mL |
| COc1ccc(C(=O)C[n+]2ccc(N(C)C)cc2)cc1.[Cl-] | > 46 µg/mL |
| O=C(c1cccc(Oc2ccc([N+](=O)[O-])cc2)c1)N1CCOCC1 | > 49.2 µg/mL |
| O=[N+]([O-])c1ccc(CN2C=NS(=O)(=O)c3ccccc32)cc1 | > 47.6 µg/mL |
| CCOc1ccc(NC(=O)COc2ccc3c(c2)OCO3)cc1 | 5.7 µg/mL (≈ 18.1 µM) |
| O=[N+]([O-])c1ccc(N2CCN(c3cccc(Cl)c3)CC2)cn1 | 2.6 µg/mL (≈ 8.16 µM) |
| CCOc1ccccc1C(=O)NC1CCN(Cc2ccccc2)CC1 | 36.8 µg/mL (≈ 109 µM) |
| CCOc1cccc(-c2nnc(SCC(=O)NC3CC3)n2C)c1 | > 49.9 µg/mL |
| O=[N+]([O-])c1cc(-n2cccc2)ccc1N1CCOCC1 | 31.6 µg/mL (≈ 116 µM) |
| CCC(=O)Nc1ccc(CCC(=O)N2CCCC2)cc1 | 40 µg/mL (≈ 146 µM) |
| Cc1ccccc1NC(=O)CCCC(=O)c1ccccc1 | 21.9 µg/mL (≈ 77.8 µM) |
| O=C(NCc1csc2ccccc12)Nc1cc(Cl)cc(Cl)c1 | 2.1 µg/mL (≈ 5.98 µM) |
| O=C(Cc1ccccc1)NCC(=O)N1CCc2ccccc2C1 | > 46.3 µg/mL |
| O=C1/C(=C/c2cccnc2)SC(=S)N1CCc1ccccc1 | < 0.3 µg/mL |
| Cc1cc(=O)[nH]c(SCc2ccc(Cl)cc2)n1 | 13.2 µg/mL (≈ 49.5 µM) |
| O=C1/C(=C/c2cccc(O)c2)SC(=S)N1CC1CCCO1 (stereo unspecified) | < 0.7 µg/mL |
| COC(=O)C1CCC(=S)N1C(=O)c1ccccc1 (stereo unspecified) | > 39.5 µg/mL |
| O=C(NCCN1CCN(C(=O)c2cccc(OC(F)F)c2)CC1)c1cccc(OC(F)F)c1 | > 70.4 µg/mL |

| Compound | solubility kinetic |
| --- | --- |
| COc1ccc(OCc2cc(=O)[nH]c3ccccc23)cc1 | 2.9 µg/mL (≈ 10.3 µM) |
| Cc1cccc(NP(=O)(Oc2ccccc2)Oc2ccccc2)c1C | < 0.8 µg/mL |
| CCC(=O)c1cn(CC(=O)Nc2ccc(C)cc2C)c2ccccc12 | < 0.4 µg/mL |
| O=C(Cc1ccc(Cl)cc1Cl)NC1CCCCCC1 | 2.2 µg/mL (≈ 7.33 µM) |
| COc1ccc(NC(=O)c2cccc(Oc3ccccc3)c2)cn1 | 8.8 µg/mL (≈ 27.5 µM) |
| COc1ccccc1CC(=O)Nc1ccc2c(c1)OC1(CCCC1)O2 | 35.7 µg/mL (≈ 105 µM) |
| CC(C)(C)c1csc(CS(=O)(=O)c2ccccn2)n1 | > 44.5 µg/mL |
| O=C(O)CCC(=O)Nc1ccc(OCC2CCCO2)cc1 (stereo unspecified) | 43.8 µg/mL (≈ 149 µM) |
| CN(C(=O)COc1cccc(C#N)c1)C1CCS(=O)(=O)C1 (stereo unspecified) | > 46.3 µg/mL |
| CC1(CCc2ccccc2)NC(=O)N(CC(=O)Nc2ccc(OC(F)F)cc2)C1=O (stereo unspecified) | 11.4 µg/mL (≈ 27.3 µM) |
| Nc1nc(-c2ccccc2)cc(-c2ccccc2)n1 | 2.6 µg/mL (≈ 10.5 µM) |
| CC(OC(=O)CC1CCCC1)C(=O)Nc1ccc(Cl)cn1 (stereo unspecified) | 30.9 µg/mL (≈ 99.4 µM) |
| O=C(O/N=C1\CCS(=O)(=O)c2sccc21)c1ccc(F)cc1 | 1.2 µg/mL (≈ 3.54 µM) |
| C=CCc1c(Cl)nc(C)nc1NCc1ccccc1 | 5.8 µg/mL (≈ 21.2 µM) |
| OCCC1CN(CC2CC2)CCN1Cc1ccc(F)c(F)c1 (stereo unspecified) | > 46.6 µg/mL |
| N#CCSc1nc2ccccc2o1 | 14.3 µg/mL (≈ 75.2 µM) |
| CCOc1ccc2nc(NS(=O)(=O)c3cccs3)sc2c1 | 9.9 µg/mL (≈ 29.1 µM) |
| S=C1CSc2ccccc2N1 | 25.1 µg/mL (≈ 138 µM) |
| CC1CCN(C(=O)CS(=O)(=O)Cc2ccccc2)CC1 | 42.3 µg/mL (≈ 143 µM) |
| CCc1ccc(C(=O)Nc2cc(C)on2)o1 | > 33 µg/mL |
| Cc1ccccc1C(=O)OCC(=O)NCc1ccco1 | > 41 µg/mL |
| Cc1cc(C=O)c(C)n1-c1ccc2c(c1)OCO2 | 24.6 µg/mL (≈ 101 µM) |
| O=[N+]([O-])c1ccc(Cl)cc1NCc1cccnc1 | > 39.6 µg/mL |
| Cc1ccc(CSC2=NCCN2C(=O)C(C)Oc2ccccc2)cc1 (stereo unspecified) | 4.4 µg/mL (≈ 12.4 µM) |
| CCOc1ccc(NC(=O)C2C3CC/C=C\CCC32)cc1 (stereo unspecified) | < 0.6 µg/mL |

| Compound | solubility kinetic |
| --- | --- |
| O=S(=O)(Nc1ccccc1F)c1cccc(NC(=S)NCCN2CCOCC2)c1 | 51.6 µg/mL (≈ 118 µM) |
| O=C(COc1ccc(Cl)cc1[N+](=O)[O-])N1CCCCC1 | > 44.8 µg/mL |
| CC(C)N(C(=S)Nc1ccc(S(=O)(=O)N2CCOCC2)cc1)c1ccccc1 | 7.1 µg/mL (≈ 16.9 µM) |
| N#Cc1ccccc1NC(=O)c1cc(=O)c2ccccc2o1 | 1.9 µg/mL (≈ 6.55 µM) |
| COc1ccccc1N1CCN(CCc2ccccc2)CC1 | 37.5 µg/mL (≈ 127 µM) |
| O=C(Nc1ccc(Br)cn1)c1ccc2ccccc2c1 | < 0.4 µg/mL |
| CCN1CCC(N2CCN(c3ccc(Cl)cc3)CC2)CC1 | 15.7 µg/mL (≈ 51 µM) |
| Cc1nc(NC(=O)CN2CCCCC2)sc1C(=O)N(C)C | > 46.6 µg/mL |
| O=C(NN1CCOCC1)c1cccc(Cl)c1 | > 36.1 µg/mL |
| CCOC(=O)/C=C1\SCC(=O)N1CC(=O)N1CCOCC1 | > 47.2 µg/mL |
| Clc1ccc(CNc2ccc(N3CCN(Cc4ccccc4)CC3)cc2)cc1 | 1 µg/mL (≈ 2.55 µM) |
| Cc1ccc(Cn2c(=O)n(C)c(=O)c3sccc32)cc1 | 1.2 µg/mL (≈ 4.19 µM) |
| CCN(CC)C(=O)c1ccc(O)c(OC)c1 | > 33.5 µg/mL |
| Cc1ccc(C)c(OCC(=O)NC2CCCCCC2)c1 | 3.8 µg/mL (≈ 13.8 µM) |
| COc1ccc(-c2noc(CN(C(=O)c3ccoc3C)C(C)C)n2)cc1 | 38.7 µg/mL (≈ 109 µM) |
| CC1c2cccn2CCN1S(=O)(=O)c1ccccc1 (stereo unspecified) | 40.3 µg/mL (≈ 146 µM) |
| CCOc1cccc(C=NCCc2ccc(OC)c(OC)c2)c1O | 45.4 µg/mL (≈ 138 µM) |
| Cl.O=C(O)C1CCN(Cc2ccccn2)CC1 | 34.4 µg/mL |
| CC1(C)NC(=O)N(CCCCOc2ccc(Cl)cc2C=O)C1=O | 47.6 µg/mL (≈ 140 µM) |
| N#Cc1ccc(COc2cccc3cccnc23)cc1 | 32.4 µg/mL (≈ 124 µM) |
| N#Cc1ccsc1NC(=O)c1cccc([N+](=O)[O-])c1 | 4.2 µg/mL (≈ 15.4 µM) |
| Cc1ccc2oc(=O)cc(CN3CCN(Cc4ccccc4)CC3)c2c1 | 19.5 µg/mL (≈ 56 µM) |
| COc1ccc(C(=O)/C=C/Nc2ccccn2)c(OC)c1 | 4.2 µg/mL (≈ 14.8 µM) |
| COc1ccc(-c2cn(-c3ccc(C)c(Cl)c3)c(=S)[nH]2)cc1OC | 11.9 µg/mL (≈ 33 µM) |
| C=CCN1C2CCCC1CC(NC(=S)Nc1ccc(Cl)cc1)C2 (stereo unspecified) | > 52.5 µg/mL |

| Compound | solubility kinetic |
| --- | --- |
| CCn1c(NC(=O)c2ccccc2)nc2ccccc21 | 3 µg/mL (≈ 11.3 µM) |
| Cc1cccc(N/C=C/C(=O)c2ccc(Cl)cc2)c1 | < 0.6 µg/mL |
| CC1(C)Cc2ccccc2C(C(Cc2ccccc2)C(N)=O)=N1 (stereo unspecified) | 41.8 µg/mL (≈ 136 µM) |
| CCCn1c(N)c(C(=O)CN2CCc3ccccc3C2)c(=O)n(C)c1=O | > 53.5 µg/mL |
| O=C(N/N=C/c1c[nH]c2ccccc12)c1ccccc1O | > 41.9 µg/mL |
| O=C(c1cc(F)cc2c1OCOC2)N1CCN(c2ccc(F)cc2)CC1 | > 54.1 µg/mL |
| Cc1ccc(NC(=O)c2cc(-c3ccccc3)n(CCCN3CCOCC3)c2C)cc1 | 19.9 µg/mL (≈ 47.7 µM) |
| O=C1CCCCCN1CP(=O)(O)CN1CCCCCC1=O | 46.1 µg/mL (≈ 146 µM) |
| COc1cccc(CN(C)C(=O)c2csc3c2CCCC3)c1OC | 46.5 µg/mL (≈ 135 µM) |
| COc1cccc(C(=O)NC2CCCc3ccccc32)c1 (stereo unspecified) | 7.8 µg/mL (≈ 27.7 µM) |
| O=C1CN(S(=O)(=O)c2ccc(F)cc2)c2ccccc2N1 | > 45.9 µg/mL |
| CCOC(=O)CNC(=O)c1ccc(Br)s1 | > 43.8 µg/mL |
| CN(C)c1ccc(S(=O)(=O)N2CCC(Cc3ccccc3)CC2)cn1 | 2 µg/mL (≈ 5.56 µM) |
| O=c1[nH]c(=O)n(-c2cccc(F)c2)c(O)c1/C=C1\C=Nc2ccccc21 | 2.9 µg/mL (≈ 8.3 µM) |
| O=[N+]([O-])c1ccc(-c2ccc(/C=N/O)o2)cc1 | 8 µg/mL (≈ 34.5 µM) |
| COc1ccc(CCNC(=O)C2CC(=O)N(c3ccc(C)cc3)C2)cc1 (stereo unspecified) | 2.5 µg/mL (≈ 7.09 µM) |
| CC(=O)c1ccc(NC(=O)C(C)NCc2ccc(Cl)cc2)cc1 (stereo unspecified) | 42.9 µg/mL (≈ 130 µM) |
| COc1cc2c(cc1OC)CN(C(=O)CCNC(=O)c1ccccc1Cl)CC2 | > 60.4 µg/mL |
| COc1ccc(C(=O)O)cc1NCc1cccnc1 | 36.8 µg/mL (≈ 142 µM) |
| Cc1cc(=O)[nH]c(Nc2ccc(Cl)cc2)n1 | > 35.4 µg/mL |
| CCCCC1CCC(C(=O)OC(C)C(=O)Nc2ccc(NC(C)=O)cc2)CC1 (stereo unspecified) | 9 µg/mL (≈ 23.2 µM) |
